Here are results for six substances from patent US20020146823A1, “Method for promoting hematopoietic and mesenchymal cell proliferation and differentiation” (The University of Southern California, priority 1997, published 2002).

Assay [1] relates to human peripheral blood mononuclear cells (PBMC). Nature of the assay: Respiratory burst (hydrogen peroxide generation) in human PBMC. The assay is classed as cell-based. As to conditions: PBMC; presence and absence of PMA. On the procedure:
The respiratory burst of leukocytes (macrophages and polymorphonuclear neutrophils) is one component of the mediator system used to kill bacteria. As with phagocytosis, the level of this respiratory burst activity in resident macrophages is low. […] Studies were conducted to assess the effect of in vitro exposure of murine or rat peritoneal macrophages and human peripheral blood mononuclear cells (PBMC) to various concentrations of AII on the capacity to generate hydrogen peroxide via the respiratory burst system. For the human studies, five different donors were examined.
The murine or rat peritoneal cells were harvested by lavage with 5-15 ml of cold PBS with 0.5% bovine serum albumin. The human PBMC were harvested by venipuncture from normal human volunteers and isolated from peripheral blood by Ficoll Hypaque density centrifugation. After isolation, the cells were resuspended at 1×10^6 cells/ml and placed at 100 μl per well into 96 well plates. The cells were incubated with various concentrations of AII or AII analogues and fragments for 4 hours at 37° C. The cells were then preloaded with a fluorescent probe for hydrogen peroxide, 2,7 dichlorofluorescein acetate, which is nonfluorescent in the absence of hydrogen peroxide. Fifteen minutes later, 10 ng/ml of phorbol myristate acetate (+PMA) or PBS (−PMA) was added to stimulate the production of hydrogen peroxide. One hour after stimulation the level of fluorescence produced was measured on a Cytofluor 2350 multiwell fluorometer.

Assay [2] concerns Rat Peritoneal Macrophages. Nature of the assay: Phagocytic capability of rat peritoneal macrophages (opsonized yeast ingestion). The assay is classed as cell-based, Sprague Dawley rats. Here is the method:
Resident peritoneal macrophages have very little phagocytic activity. Exposure of macrophages to inflammatory or activating agents will increase this macrophage function. Resident peritoneal macrophages were harvested from C57B1/6 mice or Sprague Dawley rats and resuspended at a concentration of 1×10^6 cells/ml in phosphate buffered saline (PBS). Five separate 0.5 ml cell aliquots were placed on a glass coverslip in a 35 mm petri dish. Prior to incubation, either 0.5 ml of PBS, AII, or AII analogues or fragments at between 1-1000 ug/ml final concentration was added to the individual cover slips. The dishes containing the cover slips were then incubated at 37° C. for 4 hours, after which the cover slips were washed 3 to 6 times with PBS. Opsonized yeast particles (Sigma Chemical Co.) (yeast opsonized with adult serum from the same species as that under study) were added to the cover slips and incubated for 2 hours, after which the cover slips were again washed with PBS and inverted onto a glass slide. The number of macrophages that ingested yeast and the number of yeast per macrophage ingested was then determined microscopically. At least 100 macrophages per coverslip were counted. The data from this study are summarized in Tables 3 and 4 and FIGS. 1 and 2.

Assay [3] is described as follows: Tests of effectiveness of AII fragments (test not specified). The text has this:
Particularly preferred embodiments of this class include the following: AII, AIII or AII(2-8), […] [SEQ ID NO:2]; […] AII(1-7), […] {SEQ ID NO:4]; AII(2-7). […] [SEQ ID NO:5]; AII(3-7), […] [SEQ ID NO:6]; AII(5-8), […] [SEQ ID NO:7]; AII(1-6), […] [SEQ ID NO:8]; AII(1-5), […] [SEQ ID NO:9]; AII(1-4), […] [SEQ ID NO:10]; and AII(1-3), […] [SEQ ID NO:11]. Other preferred embodiments include: […] [SEQ ID NO:12] and […] [SEQ ID NO:13]. Still another preferred embodiment encompassed within the scope of the invention is a peptide having the sequence […] [SEQ ID NO:31]. AII(6-8), […] [SEQ ID NO:14] and AII(4-8), […] Particularly preferred is angiotensin III of the formula […] [SEQ ID NO:2]. Other preferred compounds include peptides having the structures […] [SEQ ID NO:17] and […] [SEQ ID NO:18].

“Also recorded” adds a separate entry of the source. No end group written: not given here.

Take DRPYIHPF [GSD 24B]: the “respiratory burst capacity after pre-exposure to analogues and fragments of AII” value in assay [1] is recorded as “an increase in the respiratory burst capacity was observed”. In addition, the “Number of Macrophages with Yeast (Yeast Number) ≧7” value (from here on “Number … (Yeast Number) ≧7”) in assay [2] (peptide 100 μg/ml) came out at 0. Also, in assay [2] (peptide 1000 μg/ml), the “Number of Macrophages with Yeast (Yeast Number) 0” value (from here on “Number … (Yeast Number) 0”) worked out at 100 and the “Number … (Yeast Number) ≧7” value is reported as 0.

Take His-Pro-Phe [AII(6-8)]: the effectiveness entry in assay [3] is reported as “not to be effective”.

As for RVYAHPF [GSD 22A], the “respiratory burst capacity after pre-exposure to analogues and fragments of AII” value in assay [1] is reported as “an increase in the respiratory burst capacity was observed”. Also, in assay [2] (peptide 100 μg/ml), the “Number … (Yeast Number) ≧7” value is 0. Moreover, in assay [2] (peptide 1000 μg/ml), the “Number … (Yeast Number) 0” value came to 100 and the “Number … (Yeast Number) ≧7” value turned out to be 0.

Consider “Asp-Arg-Val-Tyr-Ile-His-Pro-Ile [GSD 28]”, for which, in assay [1], the “respiratory burst capacity after pre-exposure to analogues and fragments of AII” value is reported as “an increase in the respiratory burst capacity was observed”. Further, the “Number … (Yeast Number) ≧7” value in assay [2] (peptide 100 μg/ml) is given as 0. Also, in assay [2] (peptide 1000 μg/ml), the “#/Cell” value worked out at 0.02, the “% w/Yeast” value was 1.0%, the “Number … (Yeast Number) 0” value is given as 100 and the “Number of Macrophages with Yeast (Yeast Number) 1-3” value (“Number … (Yeast Number) 1-3” below) was 1. In assay [2] (peptide 1000 μg/ml), the “Number of Macrophages with Yeast (Yeast Number) 4-6” value (shortened to “Number … (Yeast Number) 4-6”) came to 0 and the “Number … (Yeast Number) ≧7” value worked out at 0.

Consider “Tyr-Ile-His-Pro-Phe (YIHPF; printed: Tyr-Ile-His-Pro-Phe) [AII(4-8)]”, for which the effectiveness entry in assay [3] is recorded as “not to be effective; also recorded: ineffective in repeated tests”.

In the case of “Asp-Arg-Val-Tyr-Ile-His-Pro (DRVYIHP; printed: Asp-Arg-Val-Tyr-Ile-His-Pro) [AII(1-7)]”, the “respiratory burst capacity after pre-exposure to analogues and fragments of AII” value in assay [1] was “an increase in the respiratory burst capacity was observed”. Besides, in assay [2] (peptide 100 μg/ml), the “#/Cell” value came out at 0.53, the “% w/Yeast” value came to 20.6%, the “Number … (Yeast Number) 0” value amounted to 100 and the “Number … (Yeast Number) 1-3” value worked out at 21. For the same substance, in assay [2] (peptide 100 μg/ml), the “Number … (Yeast Number) 4-6” value came out at 5 and the “Number … (Yeast Number) ≧7” value was determined as 0. Further, in assay [2] (peptide 1000 μg/ml), the “#/Cell” value is listed as 0.85, the “% w/Yeast” value was 30.8%, the “Number … (Yeast Number) 0” value turned out to be 90 and the “Number … (Yeast Number) 1-3” value stood at 30. Also, in assay [2] (peptide 1000 μg/ml), the “Number … (Yeast Number) 4-6” value is 10 and the “Number … (Yeast Number) ≧7” value was 0.
